Test results taken from patent publication US20190364896A1, “SYNERGISTIC WEED CONTROL FROM APPLICATIONS OF PYRIDINE CARBOXYLIC ACID HERBICIDES AND ALS INHIBITORS” (Dow AgroSciences LLC, priority 2014, published 2019).

What was measured:
[1] = test system: thistle (Cirsium arvense, CIRAR); test: Postemergence herbicidal activity, greenhouse trial (visual injury 0-100%); type: in vivo
Experimental: (§1) Seeds of the desired test plant species were planted in Sun Gro MetroMix® 306 planting mixture, which typically has a pH of 6.0 to 6.8 and an organic matter content of about 30 percent, in plastic pots with a surface area of 103.2 square centimeters (cm^2). […] The plants were grown for 7-36 days (d) in a greenhouse with an approximate 14-hour (h) photoperiod which was maintained at about 23° C. during the day and 22° C. during the night. Nutrients and water were added on a regular basis and supplemental lighting was provided with overhead metal halide 1000-Watt lamps as necessary. The plants were employed for testing when they reached the second or third true leaf stage.
(§2) Weighed amounts of technical or formulated material (emulsifiable concentrate (EC) or soluble concentrate (SL)) were dissolved in a volume of 97:3 volume per volume (v/v) acetone/dimethyl sulfoxide (DMSO) to stock solutions. […] The concentrated stock solutions were diluted with an aqueous mixture of 1.5% v/v of Agri-dex crop oil concentrate to provide the appropriate application rates. Compound requirements are based upon a 12 milliliter (mL) application volume at a rate of 187 liters per hectare (L/ha). Spray solutions of the experimental compound mixtures were prepared by adding the stock solutions to the appropriate amount of dilution solution to form a 12 mL spray solution in two-way combinations. Formulated compounds were applied to the plant material with an overhead Mandel track sprayer equipped with 8002E nozzles calibrated to deliver 187 L/ha over an application area of 0.503 square meters (m^2) at a spray height of 18 inches (43 centimeters (cm)) above average plant canopy. Control plants were sprayed in the same manner with the solvent blank. Application rates for component (a) are in g ae/ha, and application rates for component (b) are in g ai/ha.
(§3) The treated plants and control plants were placed in a greenhouse as described above and watered by sub-irrigation to prevent wash-off of the test compounds. After 20-22 d, the condition of the test plants as compared with that of the control plants was determined visually and scored on a scale of 0 to 100 percent where 0 corresponds to no injury and 100 corresponds to complete kill. Colby's equation was used to determine the herbicidal effects expected from the mixtures. […]
(§4) Weighed amounts of technical material were dissolved in a volume of 97:3 volume per volume (v/v) acetone/dimethyl sulfoxide (DMSO) to stock solutions. […] The concentrated stock solutions were diluted with an aqueous mixture of 1.5% v/v of Agri-dex crop oil concentrate to provide the appropriate application rates. Compound requirements are based upon a 12 milliliter (mL) application volume at a rate of 187 liters per hectare (L/ha).

[2] = test system: common rice (Oryza sativa, ORYSA); test: Postemergence crop injury (phytotoxicity), greenhouse trial (visual injury 0-100%)
Experimental: as §1, §2
(§5) The treated plants and control plants were placed in a greenhouse as described above and watered by sub-irrigation to prevent wash-off of the test compounds. After 20-22 d, the condition of the test plants as compared with that of the control plants was determined visually and scored on a scale of 0 to 100 percent where 0 corresponds to no injury and 100 corresponds to complete kill. The condition of the test plants was compared with that of the control plants as determined visually and scored on a scale of 0 to 100 percent, where 0 corresponds to no injury and 100 corresponds to complete kill. Colby's equation was used to determine the herbicidal effects expected from the mixtures.
(§6) Compound 1 was formulated as an EC and was combined with florasulam, cloransulam, diclosulam, flumetsulam, penoxsulam, or pyroxsulam. Compound 2 was formulated as an EC and was combined with florasulam or pyroxsulam. The mixtures were applied to winter wheat (TRZAW), common rice (ORYSA), maize (ZEAMX), and the phytotoxicity of the herbicidal compositions was measured. In addition, the efficacy of the herbicidal compositions on blackgrass (Alopecurus myosuroides, ALOMY), pigweed (Amaranthus retrollexus, AMARE), wild oat (Avena fatua, AVEFA), common lambsquarters (Chenopodium album L., CHEAL), thistle (Cirsium arvense CIRAR), nutsedge (Cyperus esculentus, CYPES), barnyardgrass (Echinochloa crus-galli, ECHCG), poinsettia (Euphorbia heterophylla, EPHHL), ivyleaf morning-glory (Ipomoea hederacea, IPOHE), kochia (Kochia scoparia, KCHSC), wild buckwheat (Polygonum convolvulus, POLCO), grain sorghum (Sorghum vulgare, SORVU), chickweed (Stellaria media, STEME), wild pansy (Viola tricolor, VIOTR), was evaluated.
as §4, with “(L/ha). […]” for “(L/ha).”

[3] = test system: wild pansy (Viola tricolor, VIOTR); test: Postemergence herbicidal activity, greenhouse trial (visual injury 0-100%); type: in vivo
Experimental: as §1, §2, §5
as §6, with “Compound 1 was formulated as an EC and was combined with florasulam, cloransulam, diclosulam, flumetsulam, penoxsulam, or pyroxsulam.” left out
as §4

[4] = test system: nutsedge (Cyperus esculentus, CYPES); test: as above; type: in vivo; settings: CYPES
Experimental: as §1
as §2, with “technical” for “technical or formulated”, “material” for “material (emulsifiable concentrate (EC) or soluble concentrate (SL))”
as §3, §2

[5] = test system: kochia (Kochia scoparia, KCHSC); test: as above; type: in vivo
Experimental: as §1, §2, §3, §4

[6] = test system: barnyardgrass (Echinochloa crus-galli, ECHCG); test: as above; type: in vivo
Experimental: as §1, §2, §5, §6
as §4, with “(L/ha). […]” for “(L/ha).”

[7] = test system: common lambsquarters (Chenopodium album L., CHEAL); test: as above; type: in vivo; settings: Chenopodium album, post-emergence, CHEAL; chlorsulfuron 2.2 g ai/ha; read-out: % visual injury Obs
Experimental: as §1, §2, §5, §6
as §4, with “(L/ha). […]” for “(L/ha).”

[8] = test system: spring rape (Brassica napus, BRSNN); test: as above; type: in vivo; settings: BRSNN; chlorsulfuron 2.2 g ai/ha
[9] = test system: ivyleaf morning-glory (Ipomoea hederacea, IPOHE); test: as above; type: in vivo
Experimental: as §1, §2, §5, §6
as §4, with “(L/ha). […]” for “(L/ha).”

[10] = test system: wild oat (Avena fatua, AVEFA); test: as above; type: in vivo; settings: 35 g ai/ha
Experimental: as §1, §2, §5, §6
as §4, with “(L/ha). […]” for “(L/ha).”

[11] = test system: giant foxtail (Setaria faberi, SETFA); test: as above; type: in vivo
[12] = test system: blackgrass (Alopecurus myosuroides, ALOMY); test: as above; type: in vivo; settings: 280 g ai/ha
Experimental: as §1, §2, §5, §6
as §4, with “(L/ha). […]” for “(L/ha).”

[13] = test system: large crabgrass (Digitaria sanguinalis, DIGSA); test: as above; type: in vivo
[14] = test system: chickweed (Stellaria media, STEME); test: as above; type: in vivo
Experimental: as §1, §2, §5, §6
as §4, with “(L/ha). […]” for “(L/ha).”

[15] = test system: maize (Zea mays, ZEAMX); test: Postemergence crop injury (phytotoxicity), greenhouse trial (visual injury 0-100%); settings: ZEAMX; nicosulfuron 17.5 g ai/ha
Experimental: as §1, §2, §5, §6
as §4, with “(L/ha). […]” for “(L/ha).”

[16] = test system: winter rape (Brassica napus, BRSNW); test: Postemergence herbicidal activity, greenhouse trial (visual injury 0-100%); type: in vivo; settings: BRSNW; nicosulfuron 17.5 g ai/ha
[17] = test system: winter wheat (Triticum aestivum, TRZAW); test: Postemergence crop injury (phytotoxicity), greenhouse trial (visual injury 0-100%); settings: TRZAW
Experimental: as §1
as §2, with “technical” for “technical or formulated”, “material” for “material (emulsifiable concentrate (EC) or soluble concentrate (SL))”
as §5
Compound 2 was combined with florasulam and applied to winter wheat (TRZAW) and the phytotoxicity of the herbicidal composition was measured. In addition, the efficacy of the herbicidal composition on poinsettia (Euphorbia heterophylla, EPHHL) and […] (Cyperus esculentus, CYPES) was evaluated.
as §4, with “technical or formulated” for “technical”, “material (emulsifiable concentrate (EC) or soluble concentrate (SL))” for “material”, “(L/ha). Spray solutions of the experimental compound mixtures were prepared by adding the stock solutions to the appropriate amount of dilution solution to form a 12 mL spray solution in two-way combinations. […]” for “(L/ha).”

[18] = test system: pigweed (Amaranthus retroflexus, AMARE); test: Postemergence herbicidal activity, greenhouse trial (visual injury 0-100%); type: in vivo; settings: Amaranthus retroflexus, post-emergence, AMARE; orthosulfamuron 15 g ai/ha; read-out: % visual injury Obs
Experimental: as §1, §2, §3, §4

[19] = test system: velvetleaf (Abutilon theophrasti, ABUTH); test: as above; type: in vivo; settings: 15 g ai/ha

COc1cc(OC)nc(Oc2cccc(Oc3nc(OC)cc(OC)n3)c2C(=O)[O-])n1.[Na+] [Bispyribac-sodium]
% visual injury Obs ([1]; 10 g ai/ha): 95%
% visual injury Obs ([2]; 10 g ai/ha): 10%
% visual injury Obs ([3]; 10 g ai/ha): 80%

COc1nc(C)nc(NC(=O)NS(=O)(=O)c2ccccc2Cl)n1 [Chlorsulfuron, chlorsulfuron]
pest or weed control ([4]; Cyperus, post-emergence, chlorsulfuron 2.2 g ai/ha, read-out: % visual injury Obs): 0%
pest or weed control ([5]; Bassia scoparia, post-emergence, KCHSC, chlorsulfuron 2.2 g ai/ha, read-out: % visual injury Obs): 50%
pest or weed control ([1]; Cirsium arvense, post-emergence, CIRAR, chlorsulfuron 2.2 g ai/ha, read-out: % visual injury Obs): 90%
pest or weed control ([6]; Echinochloa crus-galli, post-emergence, ECHCG, chlorsulfuron 2.2 g ai/ha, read-out: % visual injury Obs): 0%
pest or weed control [7]: 90%
pest or weed control ([3]; Viola tricolor, post-emergence, VIOTR, chlorsulfuron 2.2 g ai/ha, read-out: % visual injury Obs): 60%
% visual injury Obs [8]: 93%

Cc1cnc(C2=NC(C)(C(C)C)C(=O)N2)c(C(=O)O)c1 (centres unmarked) [Imazapic, imazapic]
pest or weed control at 35 g/ha ([6]; Echinochloa crus-galli, post-emergence, 35 g ai/ha, read-out: % visual injury Obs): 93%
pest or weed control at 35 g/ha ([9]; Ipomoea hederacea, post-emergence, 35 g ai/ha, read-out: % visual injury Obs): 75%
% visual injury Obs [10]: 95%
pest or weed control at 35 g/ha ([3]; Viola tricolor, post-emergence, 35 g ai/ha, read-out: % visual injury Obs): 10%
% visual injury Obs ([11]; 35 g ai/ha): 90%

CC(C)C1(C)N=C(c2ncccc2C(=O)O)NC1=O (centres unmarked) [Imazapyr, imazapyr]
% visual injury Obs [12]: 97%
pest or weed control at 280 g/ha ([9]; Ipomoea hederacea, post-emergence, 280 g ai/ha, read-out: % visual injury Obs): 85%
pest or weed control at 280 g/ha ([3]; Viola tricolor, post-emergence, 280 g ai/ha, read-out: % visual injury Obs): 80%
% visual injury Obs ([13]; 280 g ai/ha): 95%

COc1cc(OC)nc(NC(=O)NS(=O)(=O)c2ncccc2C(=O)N(C)C)n1 [Nicosulfuron, nicosulfuron]
pest or weed control at 17.5 g/ha ([5]; Bassia scoparia, post-emergence, KCHSC, nicosulfuron 17.5 g ai/ha, read-out: % visual injury Obs): 5%
pest or weed control at 17.5 g/ha ([14]; Stellaria media, post-emergence, STEME, nicosulfuron 17.5 g ai/ha, read-out: % visual injury Obs): 30%
pest or weed control at 17.5 g/ha ([9]; Ipomoea hederacea, post-emergence, IPOHE, nicosulfuron 17.5 g ai/ha, read-out: % visual injury Obs): 30%
% visual injury Obs [15]: 0%
pest or weed control at 17.5 g/ha ([3]; Viola tricolor, post-emergence, VIOTR, nicosulfuron 17.5 g ai/ha, read-out: % visual injury Obs): 40%
% visual injury Obs [16]: 85%
% visual injury Obs ([11]; SETFA, nicosulfuron 17.5 g ai/ha): 80%

COc1cc(OC)nc(NC(=O)NS(=O)(=O)Nc2ccccc2C(=O)N(C)C)n1 [Orthosulfamuron, orthosulfamuron]
% visual injury Obs ([17]; orthosulfamuron 15 g ai/ha): 0%
pest or weed control at 15 g/ha ([5]; Bassia scoparia, post-emergence, KCHSC, orthosulfamuron 15 g ai/ha, read-out: % visual injury Obs): 0%
pest or weed control at 15 g/ha [18]: 10%
pest or weed control at 15 g/ha ([9]; Ipomoea hederacea, post-emergence, IPOHE, orthosulfamuron 15 g ai/ha, read-out: % visual injury Obs): 90%
% visual injury Obs ([2]; ORYSA, orthosulfamuron 15 g ai/ha): 0%

metsulfuron
% visual injury Obs ([4]; metsulfuron 1.5 g ai/ha): 50%
% visual injury Obs ([17]; metsulfuron 1.5 g ai/ha): 0%
% visual injury Obs ([5]; KCHSC, metsulfuron 1.5 g ai/ha): 70%
% visual injury Obs ([1]; CIRAR, metsulfuron 1.5 g ai/ha): 90%
% visual injury Obs ([6]; ECHCG, metsulfuron 1.5 g ai/ha): 0%
% visual injury Obs ([2]; ORYSA, metsulfuron 1.5 g ai/ha): 20%

pyribenzoxim
% visual injury Obs ([5]; 15 g ai/ha): 0%
% visual injury Obs ([14]; 15 g ai/ha): 40%
% visual injury Obs ([9]; 15 g ai/ha): 70%
% visual injury Obs ([2]; 15 g ai/ha): 0%
% visual injury Obs ([13]; 15 g ai/ha): 0%
% visual injury Obs ([11]; 15 g ai/ha): 70%
% visual injury Obs [19]: 10%
